Test [1] deals with adenosine-sensitive receptors of thrombocytes. Description: ADP-induced aggregation of thrombocytes in vitro (Born method). It counts as cell-based, rabbit. The following applies: 3 min incubation, ADP 10^−5 M. The protocol:
The compounds according to the invention were studied for the effect of aggregation of thrombocytes induced by a preliminary introduction of a solution of an aggregation inductor with a competing introduction of the compounds according to the invention.
The aggregation of thrombocytes was studied by the Born method based on determination of the changes in the optical density of plasma enriched with thrombocytes after its incubation with an aggregation inductor.
Adenozinediphosphoric acid (ADP) was selected as an aggregation inductor, which in fact is an aggregation generator. Use was made of a sample (registration number 885) of the Sigma Diagnostics Company (USA) in final concentration of 10^−5 M.
The experiments were carried out on male rabbits of the “Chinchilla” breed having a mass of 2.7±0.3 kg. 18-24 hours prior to the experiment they were deprived of feed while preserving free access to water.
To obtain plasma enriched with thrombocytes, blood was taken from a cut of a marginal vein of the rabbit ear, the sample was stabilized with 3.8% of sodium citrate solution in a ratio of 9:1 and centrifuged at 200 g (1000 rev/min) for 10 minutes. The top supernatant layer enriched with thrombocytes was transferred by an automatic dropper into a silicone test tube and kept at 37° C. The plasma enriched with thrombocytes contained, on the average, […]. If this content exceeded the specified 3×10^8 blood platelets in 1 liter, this sample was diluted to the necessary concentration with plasma deprived of thrombocytes, which was obtained by centrifuging blood at 650 g during 10 minutes.
The measurements of the optical density of the samples were made on two-channel aggregometer of the “Chronolog” Company (USA). A flask containing 490 mkl of plasma rich with thrombocytes was placed in a device, into which a magnetic agitator covered with Teflon was lowered. The index of maximum amplitude of aggregation (MA) in percent of a fall of the plasma optical density under effect of the aggregation inductor was recorded. The control index MA of plasma was compared with the MA of plasma incubated for 3 minutes with different concentrations of the compounds: from 10^−3 to 10^−7 in vitro experiments or with plasma obtained 15, 30, 60 and 120 minutes after intravenous administration of different doses of the compounds in vivo experiments.
The process of aggregation of thrombocytes was recorded with the help of a computer; on the monitor screen the there were depicted curves reflecting changes of the optical density of the plasma enriched which was taken as a standard 100% compared to the optical density of the non-thrombocyte plasma taken for 0% content of thrombocytes.
Under in vitro conditions a flask was filled with blood plasma enriched with thrombocytes, to which an aggregation inductor ADP was added at a concentration of 10^−5 M, incubated for 3 minutes, and then the compounds according to the invention were introduced directly into the flask. Their action by aggregation of thrombocytes was studied after 3-minute incubation in a wide range of concentrations from 10^−3 to 10^−7 M to minimum concentration of 10^−7 M not inducing no effect of suppressing the aggregation.

In test [2] the test system is adenosine-sensitive receptors of erythrocytes. The test can be described thus: Chemiluminescence study of bonding to erythrocytes and competition with adenosine. It counts as binding, mice of line BALB/c. The following applies: 37° C. vs 4° C.; 10^−7 to 10^−5 M. Here is the method: The interaction of compounds 2, 15, 21, 37 according to the invention with adenosine-sensitive receptors of erythrocytes of female mice of line BALB/c of an age of 8-12 months was investigated.
The dependence of the chemiluminescence intensity of the compounds according to the invention in an alkaline solution of 0.1N NaOH was determined in the presence of hydrogen peroxide being an initiator of chemiluminescence. The chemiluminescence was studied using the <<LKB>> chemiluminometer.
The erythrocytes of peripheral blood of the mice at first were washed three times by a normal physiological solution with centrifuging and then diluted in the Henks solution without glucose by 10 volumes of distilled water immediately used in the experiment.
At the first stage of the experiments the washed erythrocytes were incubated at a temperature of 37° C. or at 4° C. with solutions of the compounds according to the invention at a concentration of 10^−7 to 10^−5 M for 5-30 minutes, then washed by a normal physiological solution with repeated centrifuging in the cold. The obtained suspension of erythrocytes with the bound compounds according to the invention was placed in 0.1N solution of NaOH with addition of hydrogen peroxide at a final concentration of 10^−7 M. The chemiluminescence intensity was measured. A suspension of erythrocytes without compounds according to the invention was used as a control medium.
At the second stage of the experiments the washed erythrocytes were incubated at a temperature of 37° C. with solutions of the compounds according to the invention at a concentration of 10^−11 to 10^−8M during
5-30 minutes, then washed twice with a normal physiological solution by centrifuging in the cold, the obtained suspension was mixed with an adenosine solution at a concentration of 10^−6 to 10^−4 and incubated for 15 minutes, then washed twice with a normal physiological solution with centrifuging in the cold. The obtained suspension of erythrocytes with the compounds according to the invention was placed in 0.1N solution of NaOH with addition of hydrogen peroxide in the final concentration of 10^−7 M. The chemiluminescence intensity was measured.

Test [3] relates to indicator enzymes in blood plasma. The test can be described thus: Morphine abstinence model: indicator enzymes AST, ALT, γ-GTP in blood plasma. The test is classed as in vivo, rats Wistar. Conditions: for ALT, Ci, mE/l, Control + compound / AST, Ci, mE/l, Control + compound / γ-GTP, Ci, mE/l, Control + compound: compound alone 20.0 mg/kg intramuscularly; for ALT, Ci, mE/l, control + Morphine + Compound / AST, Ci, mE/l, control + Morphine + Compound / γ-GTP, Ci, mE/l, control + Morphine + Compound: morphinized rats then compound 20.0 mg/kg intramuscularly. The protocol:
The experiments were carried out on rats in series of 7 animals on each compound according to the invention. Non-morphinized animal with not administered with compounds according to the invention were used as a control group. […] Then the rats were decapitated, the blood from somnolent arteries was collected in test tubes with solution EDTA as an anticoagulant, centrifuged at 1500 g for 15 minutes at 4° C.
To estimate possible hepatoprotective action of the compounds according to the invention under conditions of development of an oxidizing stress in the liver cells, effect of these compounds on the most important biochemical blood indexes, in particular, on the content in blood plasma of indicator enzyme of aspartateaminotransferase (AST), alanineaminotransferase (ALT), γ-glutamiletranspeptidase (γ-GTP) was investigated. The content of enzymes was estimated by their catalyzing activity in blood plasma.
The activity of AST, ALT and γ-GTP was determined by means of diagnostic sets DiaSys, Germany.

In the next test the test system is thymus. The test can be described thus: Morphine abstinence model: thymus condition. The test is classed as in vivo, rats. Conditions: compound alone.
Test [4] relates to synthase of nitrogen oxide (NOC). Description: Morphine abstinence model: activity of synthase of nitrogen oxide (radiometric, [3H]L-citrulline). The test is classed as in vivo, rats Wistar. Conditions: for Activity of NOC, Hypothalamus, Control + Compound / Activity of NOC, Mesencephalon, Control + Compound: compound alone 20.0 mg/kg intramuscularly; for Activity of NOC, Hypothalamus, Control + Morphine + compound / Activity of NOC, Mesencephalon, Control + Morphine + compound: morphinized rats then compound 20.0 mg/kg intramuscularly.

In the case of `Nc1ncc2c(=O)[nH][nH]c(=O)c2n1` [Compound 36, 2-amino-pyrimido[4,5-d]-6H-pyridazine-5,8-dione], the “MA - fall of optical density of plasma, % to the standard” value (from here on “MA - fall … % to the standard”) in test [1] (10^−3 M) is listed as 45.8 ± 2.3 %; in test [1] (10^−4 M), 46.9 ± 2.4 %; in test [1] (10^−5 M), 40.1 ± 2.0 %. Also, the “MA - drop of optical density, % compared to control” value (“MA - drop of optical density, %” below) in test [1] (10^−6 M) amounted to 49.3 ± 2.6%; in test [1] (10^−7 M), 49.7 ± 1.8%.

In the case of `Nc1ccnc2c(=O)n([C@@H]3O[C@H](CO)[C@@H](O)[C@H]3O)[nH]c(=O)c12` [Compound 2, 4-amino-7-(β-D-ribofuranosile)pyrido[2,3-d]-6H-pyridazine-5,8-dione], the “MA - fall … % to the standard” value came out at 51.4 ± 2.7 % in test [1] (10^−3 M), 50.4 ± 1.7 % in test [1] (10^−4 M) and 48.2 ± 1.0 % in test [1] (10^−5 M). The “MA - drop of optical density, %” value was 50.1 ± 2.0% in test [1] (10^−6 M) and 50.8 ± 2.2% in test [1] (10^−7 M). Moreover, the “bond with the erythrocytes: dependence on incubation temperature” value (shortened to “bond with the erythrocytes: dependence”) in test [2] is given as “does not depend on the temperature”.

On to `Nc1cnc2c(=O)n([C@@H]3O[C@H](CO)[C@@H](O)[C@H]3O)[nH]c(=O)c2n1.[Na]` [Compound 21, sodium salt of 3-amino-7-(β-D-ribofuranosile)pyrazine[2,3-d]-6H-pyridazine-5,8-dione], for which the “MA - fall … % to the standard” value was found to be 47.1 ± 3.0 % in test [1] (10^−3 M), 49.2 ± 2.1 % in test [1] (10^−4 M) and 41.8 ± 2.4 % in test [1] (10^−5 M). For the same compound, the “MA - drop of optical density, %” value is listed as 49.6 ± 1.7% in test [1] (10^−6 M) and 49.7 ± 2.1% in test [1] (10^−7 M). The “bond with the erythrocytes: dependence” value in test [2] is recorded as “does not depend on the temperature”.

As for `O=c1[nH][nH]c(=O)c2c(Br)ncnc12.[K]` [Compound 37, potassium salt of 4-bromine-pyrimido[4,5-D]-6H-pyridazine-5,8-dione], the “MA - fall … % to the standard” value in test [1] (10^−3 M) came to 46.9 ± 2.7 %. The “MA - fall … % to the standard” value in test [1] (10^−4 M) is given as 47.1 ± 2.0 %. Moreover, the “MA - fall … % to the standard” value in test [1] (10^−5 M) was 40.6 ± 1.7 %. Further, the “MA - drop of optical density, %” value in test [1] (10^−6 M) worked out at 48.1 ± 2.9%. The “MA - drop of optical density, %” value in test [1] (10^−7 M) is listed as 50.1 ± 1.0%. In test [3], the “ALT, Ci, mE/l, Control + compound” value was 113.84 ± 2.0 mE/l; the “AST, Ci, mE/l, Control + compound” value came to 174.82 ± 4.91 mE/l; the “γ-GTP, Ci, mE/l, Control + compound” value is 8.14 ± 2.64 mE/l; the “ALT, Ci, mE/l, control + Morphine + Compound” value was 120.84 ± 5.20 mE/l. Further, in test [3], the “AST, Ci, mE/l, control + Morphine + Compound” value came to 193.58 ± 14.18 mE/l and the “γ-GTP, Ci, mE/l, control + Morphine + Compound” value is recorded as 10.32 ± 2.67 mE/l. In addition, in the test on thymus, the “Nitrites, thymus Supernatant, Administration of compounds” value was 0.410 ± 0.01 nmol/mg of protein and the “Thymus mass, Administration of compounds” value is reported as 263 ± 21 mg. For the same compound, in test [4], the “Activity of NOC, Hypothalamus, Control + Compound” value was 5.61 ± 0.22 pmol/min/mg of protein; the “Activity of NOC, Mesencephalon, Control + Compound” value was 2.62 ± 0.27 pmol/min/mg of protein; the “Activity of NOC, Hypothalamus, Control + Morphine + compound” value was 5.59 ± 0.22 pmol/min/mg of protein; the “Activity of NOC, Mesencephalon, Control + Morphine + compound” value is 1.85 ± 0.30 pmol/min/mg of protein. Besides, the “bond with the erythrocytes: dependence” value in test [2] is reported as “does not depend on the temperature”.

For `O=c1[nH][nH]c(=O)c2nccnc12.[Li]` [Compound 25, lithium salt of pyrazine[2,3-d]-6H-pyridazine-5,8-dione], the “MA - fall … % to the standard” value in test [1] (10^−3 M) is given as 48.2 ± 2.9 %. In addition, in test [1] (10^−4 M), the “MA - fall … % to the standard” value was 48.6 ± 2.0 %. Also, the “MA - fall … % to the standard” value in test [1] (10^−5 M) was 43.4 ± 3.2 %. Further, in test [1] (10^−6 M), the “MA - drop of optical density, %” value was found to be 50.3 ± 2.1%. Further, the “MA - drop of optical density, %” value in test [1] (10^−7 M) is reported as 50.1 ± 3.0%. Moreover, in test [3], the “ALT, Ci, mE/l, Control + compound” value stood at 115.27 ± 1.09 mE/l; the “AST, Ci, mE/l, Control + compound” value came to 177.34 ± 6.13 mE/l; the “γ-GTP, Ci, mE/l, Control + compound” value was 7.57 ± 1.93 mE/l; the “ALT, Ci, mE/l, control + Morphine + Compound” value is listed as 121.96 ± 3.4 mE/l. Further, in test [3], the “AST, Ci, mE/l, control + Morphine + Compound” value came out at 196.46 ± 15.34 mE/l and the “γ-GTP, Ci, mE/l, control + Morphine + Compound” value is given as 11.37 ± 1.54 mE/l. Besides, in the test with thymus, the “Nitrites, thymus Supernatant, Administration of compounds” value was 0.417 ± 0.02 nmol/mg of protein and the “Thymus mass, Administration of compounds” value is listed as 254 ± 14 mg. Further, in test [4], the “Activity of NOC, Hypothalamus, Control + Compound” value is 5.88 ± 0.27 pmol/min/mg of protein; the “Activity of NOC, Mesencephalon, Control + Compound” value is 2.65 ± 0.43 pmol/min/mg of protein; the “Activity of NOC, Hypothalamus, Control + Morphine + compound” value was 5.23 ± 0.27 pmol/min/mg of protein; the “Activity of NOC, Mesencephalon, Control + Morphine + compound” value was 1.97 ± 0.27 pmol/min/mg of protein.

The values above are taken from patent US20070166547A1, “Use of a layer consisting of hydrophobic linear, or two-dimensional polycyclic aromatics as a barrier layer or an encapsulation and electric components constructed with a layer of this type and comprising organic polymers” (priority 2003, published 2007).
